Source: ChEMBL document CHEMBL1201862, “PubChem BioAssay data set” (2004)
Calls of active or inactive are those of the source. For most assays here, no stated cut-off is given here; in the data, actives have a measured EC50 and inactives only a lower limit.

What was measured:
[1] = NIH3T3 cell viability loss – ATP luminescence, mouse fibroblasts, counter-screen, dose response (AID 2010); type: functional, cell-based;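 further: cells exposed to compound for about 90 hours before reading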
Exodeoxyribonuclease V = biological target: T1, Exodeoxyribonuclease V (Escherichia coli (strain K12), UniProt P04993+P07648+P08394); experiment: RecBCD inhibition via phage-restricted bacterial growth – absorbance, V66 E. coli, mutant T4 phage, counter-screen for AddAB inhibitor project, dose response (AID 492957); type: functional, cell-based, Escherichia coli str. K-12 substr. MG1655
T1 sequence (P04993 whole entry): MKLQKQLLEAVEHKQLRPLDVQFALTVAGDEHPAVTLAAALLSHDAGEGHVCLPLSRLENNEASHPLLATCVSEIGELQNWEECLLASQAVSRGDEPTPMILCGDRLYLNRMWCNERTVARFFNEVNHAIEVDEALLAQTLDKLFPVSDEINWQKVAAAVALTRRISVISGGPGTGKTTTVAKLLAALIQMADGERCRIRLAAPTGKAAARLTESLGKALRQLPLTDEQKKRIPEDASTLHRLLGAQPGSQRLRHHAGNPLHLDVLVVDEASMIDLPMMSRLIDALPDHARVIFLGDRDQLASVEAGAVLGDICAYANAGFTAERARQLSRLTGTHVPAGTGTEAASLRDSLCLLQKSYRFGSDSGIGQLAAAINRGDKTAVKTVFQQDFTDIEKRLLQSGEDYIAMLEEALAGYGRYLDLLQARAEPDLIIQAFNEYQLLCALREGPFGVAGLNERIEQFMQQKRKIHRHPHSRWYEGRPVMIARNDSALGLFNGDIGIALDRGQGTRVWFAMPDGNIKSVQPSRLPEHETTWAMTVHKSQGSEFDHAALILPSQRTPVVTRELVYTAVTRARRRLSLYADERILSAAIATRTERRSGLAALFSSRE
T1 sequence (P07648 whole entry): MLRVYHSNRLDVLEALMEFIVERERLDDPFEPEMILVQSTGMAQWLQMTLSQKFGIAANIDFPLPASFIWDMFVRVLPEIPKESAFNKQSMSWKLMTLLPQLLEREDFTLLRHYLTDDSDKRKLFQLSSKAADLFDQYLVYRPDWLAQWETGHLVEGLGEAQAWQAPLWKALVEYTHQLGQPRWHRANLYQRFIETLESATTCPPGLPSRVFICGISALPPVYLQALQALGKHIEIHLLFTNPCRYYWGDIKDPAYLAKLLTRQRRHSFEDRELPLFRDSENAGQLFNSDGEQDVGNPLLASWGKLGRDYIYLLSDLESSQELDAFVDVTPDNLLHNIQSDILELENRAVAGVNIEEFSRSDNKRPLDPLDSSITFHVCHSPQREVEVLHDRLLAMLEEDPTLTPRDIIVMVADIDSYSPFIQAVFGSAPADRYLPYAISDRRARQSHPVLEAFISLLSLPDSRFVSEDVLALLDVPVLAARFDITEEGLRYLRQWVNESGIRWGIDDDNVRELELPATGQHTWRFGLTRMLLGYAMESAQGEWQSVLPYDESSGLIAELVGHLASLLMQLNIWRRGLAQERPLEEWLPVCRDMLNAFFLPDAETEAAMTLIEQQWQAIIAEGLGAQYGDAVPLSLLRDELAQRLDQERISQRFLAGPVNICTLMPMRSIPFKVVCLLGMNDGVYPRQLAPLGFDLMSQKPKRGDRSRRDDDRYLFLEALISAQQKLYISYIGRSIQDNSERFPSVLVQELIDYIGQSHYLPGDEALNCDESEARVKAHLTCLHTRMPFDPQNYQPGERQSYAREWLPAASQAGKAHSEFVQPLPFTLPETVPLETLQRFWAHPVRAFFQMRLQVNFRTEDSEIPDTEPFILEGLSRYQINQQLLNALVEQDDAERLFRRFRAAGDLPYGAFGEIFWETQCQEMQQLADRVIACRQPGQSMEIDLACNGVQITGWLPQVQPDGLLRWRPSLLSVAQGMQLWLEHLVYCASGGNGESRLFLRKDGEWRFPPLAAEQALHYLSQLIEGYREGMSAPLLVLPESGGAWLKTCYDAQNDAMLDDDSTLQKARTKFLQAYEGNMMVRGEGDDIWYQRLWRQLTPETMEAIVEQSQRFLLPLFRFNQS
T1 sequence (P08394 whole entry): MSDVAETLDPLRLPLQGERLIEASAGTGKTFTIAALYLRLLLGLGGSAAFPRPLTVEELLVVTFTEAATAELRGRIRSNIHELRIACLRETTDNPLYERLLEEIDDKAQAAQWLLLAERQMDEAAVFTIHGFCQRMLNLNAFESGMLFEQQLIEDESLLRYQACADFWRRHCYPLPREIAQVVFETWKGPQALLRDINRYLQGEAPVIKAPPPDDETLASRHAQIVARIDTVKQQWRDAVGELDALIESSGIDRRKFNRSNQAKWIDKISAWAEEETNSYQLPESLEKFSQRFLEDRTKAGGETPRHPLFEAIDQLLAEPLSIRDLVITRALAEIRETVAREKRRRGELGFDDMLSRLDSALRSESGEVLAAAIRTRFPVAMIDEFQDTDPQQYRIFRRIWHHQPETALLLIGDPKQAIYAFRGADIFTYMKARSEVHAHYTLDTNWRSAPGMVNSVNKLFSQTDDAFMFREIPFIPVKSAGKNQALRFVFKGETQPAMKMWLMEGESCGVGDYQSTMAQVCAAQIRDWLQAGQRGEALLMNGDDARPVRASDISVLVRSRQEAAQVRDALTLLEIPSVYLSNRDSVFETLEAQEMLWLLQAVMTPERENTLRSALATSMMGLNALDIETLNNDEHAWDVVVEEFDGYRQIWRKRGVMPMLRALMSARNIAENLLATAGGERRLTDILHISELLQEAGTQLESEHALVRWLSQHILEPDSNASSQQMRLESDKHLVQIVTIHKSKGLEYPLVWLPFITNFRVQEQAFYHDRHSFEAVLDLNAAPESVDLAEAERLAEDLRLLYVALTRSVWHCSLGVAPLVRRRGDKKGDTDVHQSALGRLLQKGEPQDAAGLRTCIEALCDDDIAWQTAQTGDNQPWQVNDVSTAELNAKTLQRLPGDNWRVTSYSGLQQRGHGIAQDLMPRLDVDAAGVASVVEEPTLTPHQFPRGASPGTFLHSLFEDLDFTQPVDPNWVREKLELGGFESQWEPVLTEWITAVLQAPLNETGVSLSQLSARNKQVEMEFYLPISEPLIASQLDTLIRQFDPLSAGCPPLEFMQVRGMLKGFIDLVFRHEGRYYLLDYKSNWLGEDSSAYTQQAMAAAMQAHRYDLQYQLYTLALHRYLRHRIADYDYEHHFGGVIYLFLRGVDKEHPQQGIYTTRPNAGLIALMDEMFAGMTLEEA

cells = type: functional, cell-based
[2] = Trypanosoma cruzi growth suppression in host cells – NIH3T3 host cells, beta-gal luminescence, confirmation (AID 2044); type: functional, cell-based;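 further: intracellular parasites grown in NIH/3T3 mouse fibroblasts as host cells; luminescent beta-galactosidase reporter signal from transgenic T. cruzi replicating inside host cells; inhibitors lower the luminescence signal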
[3] = non-specific 3'UTR reporter inhibition in Clone20-Shn3RL – cell-based, Renilla luciferase, cherry-picked, counter-screen for Shn3 inhibitor project, dose response (AID 624133); type: functional

## CCC(=O)NC(c1ccc(C)cc1)c1ccc2cccnc2c1O (configuration not stated)
[1]
  EC50: 0.687 µM (active)
Exodeoxyribonuclease V
  IC50: > 119 µM (inactive)
cells
  EC50: 4.3 µM (active)
[2]
  EC50: 0.481 µM (active)
[3]
  AC50: 0.383 µM (active)

## Cc1ccc(-n2sc3ccccc3c2=O)cc1
[1]
  EC50: 9.71 µM (active)
[2]
  EC50: 0.361 µM (active)

## CCCC(=O)NC(c1ccc(Cl)cc1)c1ccc2cccnc2c1O (configuration not stated)
[1]
  EC50: 0.425 µM (active)
Exodeoxyribonuclease V
  IC50: > 119 µM (inactive)
cells
  EC50: 5.77 µM (active)
[2]
  EC50: 0.226 µM (active)
[3]
  AC50: 2.72 µM (active)
